Results published in US9884863B2, “STAT3 inhibitor” (Board of Regents, The University of Texas System, priority 2013, dated 2018).
pIC50: −log10 of the molar value. Where two headings read alike, the source gives them in different places.

What was measured:
MCF-7 = assay: MTS cell proliferation assay, MCF-7; assay type: cell-based, human
Description: Cancer cells (breast cancer cell lines MCF-7, MDA-MB-361, SKBR3 and MDA-MB-231, pancreatic cancer cell lines AsPC-1. […] Proliferation was measured by treating cells with the 3-(4,5-dimethylthiazol-2-yl)-5-(3-carboxymethoxyphenyl)-2-(4-sulfophenyl)-2H-tetrazolium) (MTS) in a CellTiter 96t AQueous Non-Radioactive Cell Proliferation Assay kit from Promega, Madison, Wis., USA). Absorbance of all wells was determined by measuring OD at 550 nm after 1 hr incubation at 37° C. on a 96-well iMark™ Microplate Absorbance Reader (BioRad, Hercules, Calif.). Each individual compound was tested in quadruplicate wells for each concentration, and the results were reported as mean absorption±s.e.
In Vitro Determination of Effects of Synthesized Compounds on Cancer Cell Proliferation. Cancer cells (breast cancer cell lines MCF-7 and MDA-MB-231, pancreatic cancer cell lines AsPC-1 and Panc-1) were […], 0.01, 0.1, 1, 5, 10, […] Proliferation was measured by treating cells with the 3-(4,5-dimethylthiazol-2-yl)-5-(3-carboxymethoxyphenyl)-2-(4-sulfophenyl)-2H-tetrazolium) (MTS) in a CellTiter 96t Aqueous Non-Radioactive Cell Proliferation Assay kit (Promega, Madison, Wis., USA). Absorbance of all wells was determined by measuring OD at 550 nm after 1 h incubation at 37° C. on a 96-well iMark™ Microplate Absorbance Reader (BioRad, Hercules, Calif.). Each individual compound was tested in quadruplicate wells for each concentration.

MDA-MB-231 = assay: MTS cell proliferation assay, MDA-MB-231; assay type: cell-based, human; settings: Homo sapiens
Description: Cancer cells (breast cancer cell lines MCF-7, MDA-MB-361, SKBR3 and MDA-MB-231, pancreatic cancer cell lines AsPC-1. BxPC3 and Panc-1) were seeded in 96-well plates at a density of 1000-2000 cells/well and treated with DMSO, 0.01, 0.1, 1, 5, 10, and […] of STAT3 individual inhibitors for 72 hrs. Proliferation was measured by treating cells with the 3-(4,5-dimethylthiazol-2-yl)-5-(3-carboxymethoxyphenyl)-2-(4-sulfophenyl)-2H-tetrazolium) (MTS) in a CellTiter 96t AQueous Non-Radioactive Cell Proliferation Assay kit from Promega, Madison, Wis., USA). Absorbance of all wells was determined by measuring OD at 550 nm after 1 hr incubation at 37° C. on a 96-well iMark™ Microplate Absorbance Reader (BioRad, Hercules, Calif.).
In Vitro Determination of Effects of Synthesized Compounds on Cancer Cell Proliferation. Cancer cells (breast cancer cell lines MCF-7 and MDA-MB-231, pancreatic cancer cell lines AsPC-1 and Panc-1) were seeded in 96-well plates at a density of 2×10^3 cells/well and treated with DMSO, 0.01, 0.1, 1, 5, 10, and 100 μM of individual STAT3 inhibitors for 72 h. Proliferation was measured by treating cells with the 3-(4,5-dimethylthiazol-2-yl)-5-(3-carboxymethoxyphenyl)-2-(4-sulfophenyl)-2H-tetrazolium) (MTS) in a CellTiter 96t Aqueous Non-Radioactive Cell Proliferation Assay kit (Promega, Madison, Wis., USA). Absorbance of all wells was determined by measuring OD at 550 nm after 1 h incubation at 37° C. on a 96-well iMark™ Microplate Absorbance Reader (BioRad, Hercules, Calif.). Each individual compound was tested in quadruplicate wells for each concentration. […]

[1] = Homo sapiens, MCF7, 72 h; read-out: IC50 MCF-7 (Table 1)
[2] = MDA-MB-231, ER-negative breast cancer, 72 hrs, >10 = no effect, read-out: IC50 MDA-MB-231 (Table 1)
[3] = Homo sapiens, MCF7, 72 h, read-out: IC50 MCF-7 (Table 1)
[4] = MCF-7, 48 hr, μM concentrations
[5] = MDA-MB-231, 72 h, read-out: IC50 MDA-MB-231 (Table 1)

Work on `O=C(Nc1ccc2c(c1)S(=O)(=O)C=C2)c1cc(Cl)ccc1OCCBr` [Compound 2] yielded a pIC50 (MCF-7; Homo sapiens, MCF7, read-out: IC50 MCF-7 (Table 2)) of under 5.00 and a pIC50 (MDA-MB-231; MDA-MB-231, read-out: IC50 MDA-MB-231 (Table 2)) of under 5.00.

Work on `COC1CS(=O)(=O)c2cc(NC(=O)c3cc(-c4ccccc4)nc4ccccc34)ccc21` (stereo not drawn) [HJC-1-57, 2-Phenyl-quinoline-4-carboxylic acid (3-methoxy-1,1-dioxo-2,3-dihydro-1H-1λ^6-benzo[b]thiophen-6-yl)amide] yielded a pIC50 (MCF-7; [1]) of under 5.00 and a pIC50 (MDA-MB-231; [2]) of 4.86.

Work on `CC(=O)Nc1ccc2c(c1)S(=O)(=O)C=C2` [HJC-1-62, N-(1,1-Dioxo-1H-1λ^6-benzo[b]thiophen-6-yl)acetamide] yielded a pIC50 (MCF-7; [1]) of under 5.00 and a pIC50 (MDA-MB-231; [2]) of under 5.00.

With `COC1CS(=O)(=O)c2cc(NC(C)=O)ccc21` (stereo not drawn) [HJC-1-63, N-(3-Methoxy-1,1-dioxo-2,3-dihydro-1H-1λ^6-benzo[b]thiophen-6-yl)acetamide] the pIC50 (MCF-7; [1]) was under 5.00 and the pIC50 (MDA-MB-231; [2]) was under 5.00.

In the case of `COc1ccc(C(=O)Nc2ccc3c(c2)S(=O)(=O)C=C3)cc1` [HJC-2-15, N-(1,1-Dioxo-1H-1λ^6-benzo[b]thiophen-6-yl)-4-methoxybenzamide], the pIC50 (MCF-7; [1]) was 5.23 and the pIC50 (MDA-MB-231; [2]) was 5.30.

`COc1ccc(C(=O)Nc2ccc3c(c2)S(=O)(=O)CC3OC)cc1` (stereo not drawn) [HJC-2-20, 4-Methoxy-N-(3-methoxy-1,1-dioxo-2,3-dihydro-1H-1λ^6-benzo[b]thiophen-6-yl)benzamide] gave a pIC50 (MCF-7; [1]) of under 5.00 and a pIC50 (MDA-MB-231; [2]) of under 5.00.

`O=C(Nc1ccc([N+](=O)[O-])cc1Cl)c1cc(Cl)ccc1OCCN1CCNCC1` [HJC-2-52, 5-Chloro-N-(2-chloro-4-nitro-phenyl)-2-(2-piperazin-1-yl-ethoxy)benzamide] gave a pIC50 (MCF-7; [1]) of 4.91 and a pIC50 (MDA-MB-231; [2]) of 5.06.

`CS(=O)(=O)N1CCN(CCOc2ccc(Cl)cc2C(=O)Nc2ccc([N+](=O)[O-])cc2Cl)CC1` [HJC-2-55, 5-Chloro-N-(2-chloro-4-nitrophenyl)-2-[2-(4-methanesulfonylpiperazin-1-yl)-ethoxy]benzamide] was tested, and the pIC50 (MCF-7; [1]) was under 5.00 and the pIC50 (MDA-MB-231; [2]) was under 5.00.

`NCCOCCOc1ccc(Cl)cc1C(=O)Nc1ccc([N+](=O)[O-])cc1Cl` [HJC-2-58, 2-[2-(2-Amino-ethoxy)-ethoxy]-5-chloro-N-(2-chloro-4-nitro-phenyl)benzamide] gave a pIC50 (MCF-7; [1]) of 5.03 and a pIC50 (MDA-MB-231; [2]) of 5.28.

For `O=C(Nc1ccc2c(c1)S(=O)(=O)C=C2)c1cc(Cl)ccc1OCCN1CCOCC1` [HJC-3-9, 5-Chloro-N-(1,1-dioxo-1H-1λ^6-benzo[b]thiophen-6-yl)-2-(2-morpholin-4-yl-ethoxy) benzamide], the pIC50 (MCF-7; [3]) was 6.31, the “inhibition on breast cancer cell proliferation (FIG. 1)” value (shortened to “inhibition”) (MCF-7; [4]) was “significant inhibition” and the pIC50 (MDA-MB-231; [5]) was 5.27.

`O=C(Nc1ccc2c(c1)S(=O)(=O)C=C2)c1ccccn1` [HJC-3-20, Pyridine-2-carboxylic acid (1,1-dioxo-1H-1λ^6-benzo[b]thiophen-6-yl)amide] showed a pIC50 (MCF-7; [1]) of 5.17 and a pIC50 (MDA-MB-231; [2]) of under 5.00.

Molecule `CN(C)CCOc1ccc(Cl)cc1C(=O)Nc1ccc([N+](=O)[O-])cc1Cl` [HJC-3-57, 5-Chloro-N-(2-chloro-4-nitro-phenyl)-2-(2-dimethylamino-ethoxy)benzamide] has a pIC50 (MCF-7; [3]) of under 5.00 and a pIC50 (MDA-MB-231; [5]) of under 5.00.

`O=C(Nc1ccc([N+](=O)[O-])cc1Cl)c1cc(Cl)ccc1OCC(O)CO` (stereo not drawn) [HJC-3-60, 5-Chloro-N-(2-chloro-4-nitrophenyl)-2-(2,3-dihydroxypropoxy)benzamide] was tested, and the pIC50 (MCF-7; [1]) was under 5.00 and the pIC50 (MDA-MB-231; [2]) was under 5.00.

With `N#CCC(=O)Nc1ccc2c(c1)S(=O)(=O)C=C2` [HJC-3-61, 2-Cyano-N-(1,1-dioxo-1H-1λ^6-benzo[b]thiophen-6-yl)acetamide] the pIC50 (MCF-7; [3]) was under 5.00 and the pIC50 (MDA-MB-231; [5]) was under 5.00.

Work on `O=C(Nc1ccc([N+](=O)[O-])cc1Cl)c1cc(Cl)ccc1OCCBr` [HJC-3-64, 2-(2-Bromoethoxy)-5-chloro-N-(2-chloro-4-nitrophenyl)benzamide] yielded a pIC50 (MCF-7; [3]) of under 5.00 and a pIC50 (MDA-MB-231; [5]) of under 5.00.

Molecule `CN1CCN(CCOc2ccc(Cl)cc2C(=O)Nc2ccc([N+](=O)[O-])cc2Cl)CC1` [HJC-3-65, 5-Chloro-N-(2-chloro-4-nitrophenyl)-2-[2-(4-methylpiperazin-1-yl)-ethoxy]benzamide] has a pIC50 (MCF-7; [1]) of under 5.00 and a pIC50 (MDA-MB-231; [2]) of under 5.00.

`COc1ccc(S(=O)(=O)Nc2ccc3c(c2)S(=O)(=O)C=C3)cc1` [HJC-3-68, N-(1,1-Dioxo-1H-1λ^6-benzo[b]thiophen-6-yl)-4-methoxybenzenesulfonamide] showed a pIC50 (MCF-7; [1]) of 5.46 and a pIC50 (MDA-MB-231; [2]) of 5.57.

For `CN(C)CCOc1ccc(Cl)cc1C(=O)Nc1ccc2c(c1)S(=O)(=O)C=C2` [HJC-3-69, 5-Chloro-2-(2-dimethylaminoethoxy)-N-(1,1-dioxo-1H-1λ^6-benzo[b]thiophen-6-yl) benzamide], the pIC50 (MCF-7; [3]) was 5.46, the “inhibition” value (MCF-7; [4]) was “significant inhibition” and the pIC50 (MDA-MB-231; [5]) was 5.57.

`O=C(Nc1ccc2c(c1)S(=O)(=O)C=C2)c1cccnc1` [HJC-3-76, N-(1,1-Dioxo-1H-1λ^6-benzo[b]thiophen-6-yl)-nicotinamide] showed a pIC50 (MCF-7; [3]) of 4.81 and a pIC50 (MDA-MB-231; [5]) of under 5.00.

`O=C(Nc1ccc2c(c1)S(=O)(=O)C=C2)c1cc(Cl)ccc1OCCBr` [HJC-3-77, 2-(2-Bromo-ethoxy)-5-chloro-N-(1,1-dioxo-1H-1λ^6-benzo[b]thiophen-6-yl)benzamide] gave a pIC50 (MCF-7; [3]) of under 5.00 and a pIC50 (MDA-MB-231; [5]) of under 5.00.

`CN1CCN(CCOc2ccc(Cl)cc2C(=O)Nc2ccc3c(c2)S(=O)(=O)C=C3)CC1` [HJC-3-78, 5-Chloro-N-(1,1-dioxo-1H-1λ^6-benzo[b]thiophen-6-yl)-2-[2-(4-methylpiperazin-1-yl)-ethoxy]benzamide] showed a pIC50 (MCF-7; [1]) of 5.39 and a pIC50 (MDA-MB-231; [2]) of 5.54.

In the case of `O=C(Nc1ccc2c(c1)S(=O)(=O)C=C2)c1cc(Cl)ccc1OCCN1CCCCC1` [HJC-3-79, 5-Chloro-N-(1,1-dioxo-1H-1λ^6-benzo[b]thiophen-6-yl)-2-(2-piperidin-1-yl-ethoxy)benzamide], the pIC50 (MCF-7; [1]) was 5.43 and the pIC50 (MDA-MB-231; [2]) was 5.60.

Work on `O=C(Nc1ccc2c(c1)S(=O)(=O)C=C2)c1ccncc1` [HJC-3-80, N-(1,1-Dioxo-1H-1λ^6-benzo[b]thiophen-6-yl)-isonicotinamide] yielded a pIC50 (MCF-7; [1]) of under 5.00 and a pIC50 (MDA-MB-231; [2]) of under 5.00.

For `CN1CCC(Oc2ccc(Cl)cc2C(=O)Nc2ccc([N+](=O)[O-])cc2Cl)CC1` [HJC-3-81, 5-Chloro-N-(2-chloro-4-nitrophenyl)-2-(1-methylpiperidin-4-yloxy)benzamide], the pIC50 (MCF-7; [3]) was 5.39, the “inhibition” value (MCF-7; [4]) was “significant inhibition” and the pIC50 (MDA-MB-231; [5]) was 5.57.

Work on `CN1CCC(Oc2ccc(Cl)cc2C(=O)Nc2ccc3c(c2)S(=O)(=O)C=C3)CC1` [HJC-3-82, 5-Chloro-N-(1,1-dioxo-1H-1λ^6-benzo[b]thiophen-6-yl)-2-(1-methyl-piperidin-4-yloxy) benzamide] yielded a pIC50 (MCF-7; [3]) of 5.45 and a pIC50 (MDA-MB-231; [5]) of 5.57.

Molecule `O=C(Nc1ccc([N+](=O)[O-])cc1Cl)c1cc(Cl)ccc1OCCN1CCCCC1` [HJC-3-84, 5-Chloro-N-(2-chloro-4-nitrophenyl)-2-(2-piperidin-1-yl-ethoxy)benzamide] has a pIC50 (MCF-7; [1]) of under 5.00 and a pIC50 (MDA-MB-231; [2]) of under 5.00.

In the case of `O=C(Nc1ccc2c(c1)S(=O)(=O)C=C2)c1cnc2ccccc2c1` [HJC-3-91, Quinoline-3-carboxylic acid (1,1-dioxo-1H-1λ^6-benzo[b]thiophen-6-yl)amide], the pIC50 (MCF-7; [1]) was 5.53, the “inhibition” value (MCF-7; [4]) was “significant inhibition” and the pIC50 (MDA-MB-231; [2]) was 5.21.

For `NCCOc1ccc(Cl)cc1C(=O)Nc1ccc2c(c1)S(=O)(=O)C=C2` [HJC-3-93, 2-(2-Amino-ethoxy)-5-chloro-N-(1,1-dioxo-1H-1λ^6-benzo[b]thiophen-6-yl)benzamide], the pIC50 (MCF-7; [1]) was 5.46 and the pIC50 (MDA-MB-231; [2]) was 5.51.
